The results in this text go back to publication PMC4076047 (Nature chemical biology, 2014).

Structures can show the parent of a compound that is named as a salt.

This assay concerns the target Vps35 (retromer core complex Vps35–Vps29–Vps26) (Homo sapiens, UniProt Q96QK1+Q9UBQ0). Put plainly: microscale thermophoresis. The class given is binding. (In general: Microscale thermophoresis detects binding through changes in fluorescence in a small temperature gradient.)

`N=C(N)SCc1ccc(CSC(=N)N)s1` [compound 1, thiophene-2,5-diylbis(methylene) dicarbamimidothioate dihydrochloride] returned a dissociation constant (Kd) of approximately 5 µM.

As a reminder, the Kd is the constant that tells how readily two partners part at equilibrium.
